Laboratory results published in PMC11035696, “Prospective de novo drug design with deep interactome learning” (Nature Communications, 2024).
“Also recorded” adds a separate entry of the source.

Legend:
CYP2C9 = CYP2C9 (Homo sapiens, UniProt P11712); assay: CYP inhibition dose-response; format: in vitro ADME; conditions: substrate DICLOFENAC
Procedure: (§1) SI11Absorption Distribution Metabolism and Excretion and Toxicity Data
(§2) To assess the drug-like characteristics of the newly designed PPAR modulators, a series of tests were conducted covering various aspects of absorption, distribution, metabolism, and excretion (ADME) properties. Specifically, these assessments included the parallel artificial membrane permeability assay (PAMPA) with permeation co- […]
(§3) efficients ([…]), LogD measurements, microsomal clearance, hepatocyte clearance, P-glycoprotein (Pgp) efflux ratio and binding and the unbound free fraction. Furthermore, the evaluation of inhibition po-tential against cytochrome P450 isoenzymes (CYP) proteins was investigated. For seven selected CYP proteins (i.e., Cyp3A4, Cyp1A2, Cyp2B6, Cyp2C9, Cyp2D6, Cyp2C19, and Cyp2C8) the half maximal inhibitory con-centration (IC50) was determined. (Table S15). […]
(§4) activity in the CYP assays was found.
(§5) Table S14: Absorption distribution metabolism and excretion (ADME) properties of compounds 1 and 2. […]
(§6) The values for microsomal clearance and CYP-inhibition represent single point measurements. […]
(§7) Molecule Enzyme Substrate IC50 (µM)

CYP2C8 = CYP2C8 (Homo sapiens, UniProt P10632); assay: CYP inhibition dose-response; format: in vitro ADME; conditions: substrate AMODIAQUINE
Chain of CYP2C8 (P10632 whole entry): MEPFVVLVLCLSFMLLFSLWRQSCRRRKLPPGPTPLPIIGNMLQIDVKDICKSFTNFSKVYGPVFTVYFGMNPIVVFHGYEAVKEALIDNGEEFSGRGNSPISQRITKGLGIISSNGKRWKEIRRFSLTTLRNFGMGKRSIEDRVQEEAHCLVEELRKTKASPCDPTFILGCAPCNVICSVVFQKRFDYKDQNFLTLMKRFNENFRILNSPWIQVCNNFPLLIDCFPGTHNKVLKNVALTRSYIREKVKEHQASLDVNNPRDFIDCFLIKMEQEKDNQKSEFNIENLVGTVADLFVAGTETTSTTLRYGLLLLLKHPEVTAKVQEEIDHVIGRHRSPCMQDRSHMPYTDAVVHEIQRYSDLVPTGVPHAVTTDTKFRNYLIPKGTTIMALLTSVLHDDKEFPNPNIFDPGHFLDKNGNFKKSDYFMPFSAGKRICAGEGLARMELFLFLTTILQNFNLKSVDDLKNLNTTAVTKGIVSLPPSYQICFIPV
Procedure: as §1, §2, §3, §4, §5, §6, §7

CYP2D6 = CYP2D6 (Homo sapiens, UniProt P10635); assay: CYP inhibition dose-response; format: in vitro ADME; conditions: substrate DEXTROMETHORPHAN
Chain of CYP2D6 (P10635 whole entry): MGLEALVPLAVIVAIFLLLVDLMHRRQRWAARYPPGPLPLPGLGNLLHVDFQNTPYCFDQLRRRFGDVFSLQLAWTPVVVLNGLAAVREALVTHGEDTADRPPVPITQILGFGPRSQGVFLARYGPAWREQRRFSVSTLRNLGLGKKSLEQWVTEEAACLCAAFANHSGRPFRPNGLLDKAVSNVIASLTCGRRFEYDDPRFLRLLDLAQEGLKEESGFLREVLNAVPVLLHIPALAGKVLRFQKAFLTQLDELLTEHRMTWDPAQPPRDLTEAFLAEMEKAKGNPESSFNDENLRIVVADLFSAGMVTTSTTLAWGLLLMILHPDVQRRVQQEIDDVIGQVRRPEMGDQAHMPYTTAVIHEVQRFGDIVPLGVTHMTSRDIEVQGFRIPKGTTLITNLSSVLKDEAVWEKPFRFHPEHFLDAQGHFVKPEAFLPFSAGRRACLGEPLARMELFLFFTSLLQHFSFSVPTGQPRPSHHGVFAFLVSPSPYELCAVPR
Procedure: as §1, §2, §3, §4, §5, §6, §7

CYP3A4 = CYP3A4 (Homo sapiens, UniProt P08684); assay: CYP inhibition dose-response; format: in vitro ADME; conditions: substrate MIDAZOLAM
Chain of CYP3A4 (P08684 whole entry): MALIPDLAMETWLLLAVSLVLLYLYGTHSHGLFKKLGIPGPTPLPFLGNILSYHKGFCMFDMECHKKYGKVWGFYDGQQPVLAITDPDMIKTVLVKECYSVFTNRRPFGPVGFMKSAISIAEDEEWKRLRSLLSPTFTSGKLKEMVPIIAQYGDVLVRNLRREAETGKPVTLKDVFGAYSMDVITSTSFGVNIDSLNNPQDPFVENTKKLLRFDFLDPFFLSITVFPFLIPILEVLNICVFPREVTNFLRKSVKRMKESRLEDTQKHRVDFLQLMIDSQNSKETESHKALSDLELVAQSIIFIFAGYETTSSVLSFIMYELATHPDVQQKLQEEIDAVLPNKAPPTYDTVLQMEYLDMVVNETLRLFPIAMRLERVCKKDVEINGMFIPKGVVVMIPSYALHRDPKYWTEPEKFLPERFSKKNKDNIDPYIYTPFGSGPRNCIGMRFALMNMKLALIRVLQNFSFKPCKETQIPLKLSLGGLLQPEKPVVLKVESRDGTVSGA
Procedure: as §1, §2, §3, §4, §5, §6, §7

GSK-3B = GSK-3B (Homo sapiens, UniProt P49841); assay: Safety off-target panel, enzymatic; format: biochemical; conditions: single point
Text: (§8) Table S9-S12 list all targets, their species, inhibition (%) and assay type for the experiments conducted in the
(§9) off-targets. […] The numbers for mean
(§10) inhibition (%) represent single point measurements.
(§11) off-targets. […] The numbers for
(§12) mean inhibition (%) represent single point measurements.

ZAP70 = ZAP70 (Homo sapiens, UniProt P43403); assay: Safety off-target panel, enzymatic; format: biochemical; conditions: single point
Text: as §8, §9, §10, §11, §12

CDK2 = CDK2 (Homo sapiens, UniProt P24941); assay: Safety off-target panel, enzymatic; format: biochemical; conditions: single point
Text: as §8, §9, §10, §11, §12

PHOSPHODIESTERASE 3B = PHOSPHODIESTERASE 3B (Homo sapiens, UniProt Q13370); assay: Safety off-target panel, enzymatic; format: biochemical; conditions: single point
Chain of UniProt Q13370 (Q13370 whole entry): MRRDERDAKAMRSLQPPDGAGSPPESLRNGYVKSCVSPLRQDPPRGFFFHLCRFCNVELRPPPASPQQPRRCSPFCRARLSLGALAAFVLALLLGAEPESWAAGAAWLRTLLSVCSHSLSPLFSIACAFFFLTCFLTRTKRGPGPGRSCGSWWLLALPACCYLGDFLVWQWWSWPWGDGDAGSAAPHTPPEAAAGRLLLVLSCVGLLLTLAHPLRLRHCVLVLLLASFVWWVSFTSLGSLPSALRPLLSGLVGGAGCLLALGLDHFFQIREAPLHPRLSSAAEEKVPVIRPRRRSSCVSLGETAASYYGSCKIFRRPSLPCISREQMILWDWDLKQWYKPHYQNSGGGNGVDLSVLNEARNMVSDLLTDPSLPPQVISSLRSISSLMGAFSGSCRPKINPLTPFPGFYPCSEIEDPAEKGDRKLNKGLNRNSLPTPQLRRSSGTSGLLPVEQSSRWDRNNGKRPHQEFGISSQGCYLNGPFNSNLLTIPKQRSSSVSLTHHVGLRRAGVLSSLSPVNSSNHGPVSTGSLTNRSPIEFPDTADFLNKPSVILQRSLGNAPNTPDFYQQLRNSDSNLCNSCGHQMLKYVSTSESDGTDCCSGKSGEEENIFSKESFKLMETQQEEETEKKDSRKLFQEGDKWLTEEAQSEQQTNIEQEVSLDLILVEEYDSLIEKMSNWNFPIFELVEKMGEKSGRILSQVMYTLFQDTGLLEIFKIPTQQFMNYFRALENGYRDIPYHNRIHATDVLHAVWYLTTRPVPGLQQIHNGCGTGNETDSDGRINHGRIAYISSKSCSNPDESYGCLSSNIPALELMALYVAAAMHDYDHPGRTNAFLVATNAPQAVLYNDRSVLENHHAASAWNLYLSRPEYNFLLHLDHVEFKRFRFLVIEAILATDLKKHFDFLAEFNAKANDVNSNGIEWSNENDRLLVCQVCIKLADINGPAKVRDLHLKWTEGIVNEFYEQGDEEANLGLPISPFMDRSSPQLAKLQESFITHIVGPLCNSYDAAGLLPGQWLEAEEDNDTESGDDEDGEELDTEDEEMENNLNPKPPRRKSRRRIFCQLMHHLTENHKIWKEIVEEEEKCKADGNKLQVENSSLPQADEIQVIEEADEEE
Text: as §8, §9, §10, §11, §12

ABL1 = ABL1 (Homo sapiens, UniProt P00519); assay: Safety off-target panel, enzymatic; format: biochemical; conditions: single point
Text: as §8, §9, §10, §11, §12

HIV-1 PROTEASE = assay: Safety off-target panel, enzymatic; format: biochemical; conditions: 10 µM, single point
Text: as §8, §9, §10, §11, §12

ACETYLCHOLINESTERASE = ACETYLCHOLINESTERASE (Homo sapiens, UniProt P22303); assay: Safety off-target panel, enzymatic; format: biochemical; conditions: single point
Text: as §8, §9, §10, §11, §12

GSK-3A = GSK-3A (Homo sapiens, UniProt P49840); assay: Safety off-target panel, enzymatic; format: biochemical; conditions: single point
Chain of GSK-3A (P49840 whole entry): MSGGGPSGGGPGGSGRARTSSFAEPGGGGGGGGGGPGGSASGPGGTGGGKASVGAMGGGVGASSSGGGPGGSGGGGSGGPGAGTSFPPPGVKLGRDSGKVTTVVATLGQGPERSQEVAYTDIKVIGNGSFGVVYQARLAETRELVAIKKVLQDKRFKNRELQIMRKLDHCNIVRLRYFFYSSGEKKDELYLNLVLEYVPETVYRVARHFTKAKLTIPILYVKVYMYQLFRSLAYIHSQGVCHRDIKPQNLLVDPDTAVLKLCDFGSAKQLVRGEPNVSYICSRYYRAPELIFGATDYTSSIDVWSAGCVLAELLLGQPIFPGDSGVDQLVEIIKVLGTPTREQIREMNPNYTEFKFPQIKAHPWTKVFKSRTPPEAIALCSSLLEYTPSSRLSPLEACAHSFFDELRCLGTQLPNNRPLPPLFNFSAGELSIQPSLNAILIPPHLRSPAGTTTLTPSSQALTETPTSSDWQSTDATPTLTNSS
Text: as §8, §9, §10, §11, §12

MONOAMINE OXIDASE-A = MONOAMINE OXIDASE-A (Homo sapiens, UniProt P21397); assay: Safety off-target panel, enzymatic; format: biochemical; conditions: single point
Chain of MONOAMINE OXIDASE-A (P21397 whole entry): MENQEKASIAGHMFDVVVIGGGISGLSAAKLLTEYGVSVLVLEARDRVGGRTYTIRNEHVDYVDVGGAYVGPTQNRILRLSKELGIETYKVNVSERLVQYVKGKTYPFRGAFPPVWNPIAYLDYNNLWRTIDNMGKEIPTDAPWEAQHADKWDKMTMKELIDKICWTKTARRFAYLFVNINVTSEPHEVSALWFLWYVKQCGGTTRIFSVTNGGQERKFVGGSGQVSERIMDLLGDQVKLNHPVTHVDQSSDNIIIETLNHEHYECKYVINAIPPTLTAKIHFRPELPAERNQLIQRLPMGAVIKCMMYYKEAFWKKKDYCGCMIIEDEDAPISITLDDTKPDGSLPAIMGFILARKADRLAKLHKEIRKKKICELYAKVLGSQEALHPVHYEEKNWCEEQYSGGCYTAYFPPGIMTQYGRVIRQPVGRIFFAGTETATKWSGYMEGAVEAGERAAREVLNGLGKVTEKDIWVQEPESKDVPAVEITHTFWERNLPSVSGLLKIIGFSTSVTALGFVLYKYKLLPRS
Text: as §8, §9, §10, §11, §12

[1] = target: ANGIOTENSIN CONVERTING ENZYME (Homo sapiens, UniProt P12821); assay: Safety off-target panel, enzymatic; format: biochemical; conditions: single point
Text: as §8, §9, §10, §11, §12

CYCLO OXYGENASE 2 = CYCLO OXYGENASE 2 (Homo sapiens, UniProt P35354); assay: Safety off-target panel, enzymatic; format: biochemical; conditions: single point
Chain of CYCLO OXYGENASE 2 (P35354 18-604): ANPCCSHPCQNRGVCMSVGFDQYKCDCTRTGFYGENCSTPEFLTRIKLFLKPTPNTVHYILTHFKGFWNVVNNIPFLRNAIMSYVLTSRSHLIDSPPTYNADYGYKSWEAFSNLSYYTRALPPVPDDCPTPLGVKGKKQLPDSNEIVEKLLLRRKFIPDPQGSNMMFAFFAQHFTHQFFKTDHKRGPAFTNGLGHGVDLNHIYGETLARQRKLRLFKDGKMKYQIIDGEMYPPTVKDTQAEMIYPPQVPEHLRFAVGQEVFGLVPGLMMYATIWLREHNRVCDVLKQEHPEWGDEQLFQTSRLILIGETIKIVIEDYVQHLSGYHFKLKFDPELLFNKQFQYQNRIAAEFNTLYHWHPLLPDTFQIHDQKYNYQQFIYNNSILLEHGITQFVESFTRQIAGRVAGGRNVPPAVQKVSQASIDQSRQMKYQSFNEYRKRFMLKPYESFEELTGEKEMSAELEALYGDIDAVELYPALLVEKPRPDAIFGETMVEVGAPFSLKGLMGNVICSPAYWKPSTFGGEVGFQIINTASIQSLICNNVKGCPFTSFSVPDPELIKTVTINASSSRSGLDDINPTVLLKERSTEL
Text: as §8, §9, §10, §11, §12

PHOSPHODIESTERASE 4D2 = PHOSPHODIESTERASE 4D2 (Homo sapiens, UniProt Q08499); assay: Safety off-target panel, enzymatic; format: biochemical; conditions: single point
Chain of UniProt Q08499 (Q08499 303-809 limits assumed): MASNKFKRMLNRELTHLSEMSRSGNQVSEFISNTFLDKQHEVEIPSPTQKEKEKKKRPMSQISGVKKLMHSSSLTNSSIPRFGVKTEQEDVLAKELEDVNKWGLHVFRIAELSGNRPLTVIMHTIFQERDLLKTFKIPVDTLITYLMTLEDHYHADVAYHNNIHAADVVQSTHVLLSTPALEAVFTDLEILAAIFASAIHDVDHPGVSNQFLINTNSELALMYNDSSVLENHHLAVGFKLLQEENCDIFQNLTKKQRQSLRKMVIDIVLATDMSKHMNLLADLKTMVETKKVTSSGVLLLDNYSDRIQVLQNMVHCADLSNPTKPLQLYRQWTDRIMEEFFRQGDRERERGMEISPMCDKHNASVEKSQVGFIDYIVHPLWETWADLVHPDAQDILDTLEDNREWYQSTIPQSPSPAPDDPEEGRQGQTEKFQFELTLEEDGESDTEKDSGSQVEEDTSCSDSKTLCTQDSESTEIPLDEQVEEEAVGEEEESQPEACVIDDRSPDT
Text: as §8, §9, §10, §11, §12

[2] = Protein binding, unbound free fraction; format: in vitro ADME; conditions: human, plasma
Procedure: Compounds 1–3 were characterized in a hybrid reporter gene assay for their agoniztic effect on human nuclear receptors PPARα/γ/δ, RXRα, FXRα, RARα in HEK293T cells. Compound 1 was tested in an isothermal titration calorimetry (ITC) assay to measure direct binding affinity to the ligand-binding domain of PPARγ. ADME properties were measured in standardized assays at Roche.
as §1, §2
efficients ([…]), LogD measurements, microsomal clearance, hepatocyte clearance, P-glycoprotein (Pgp) efflux ratio and binding and the unbound free fraction. […]
Table S14: Absorption distribution metabolism and excretion (ADME) properties of compounds 1 and 2. The […]
values for […], LogD, protein binding, P-glycoprotein (Pgp) efflux ratio and permeability, and hepato-cyte clearance are presented as the mean and standard deviation, with a sample size of N = 3, i.e., 3 technical replicates each. The values for microsomal clearance and CYP-inhibition represent single point measurements. […]

HEK293T cells = assay: Cytotoxicity assay on HEK293T cells (Celltiter-glo); format: cell-based, human; conditions: 16 h and 24 h, 0.05–20 μM, range of cell numbers, result in words
Procedure: HEK293T cells were seeded at the indicated number per well in DMEM-high glucose, complemented with glutamax, pen-strep, and 10% FBS, in a total of 40 μl of medium. The cells were incubated overnight at 37 °C. Compounds were added to the cells at the indicated concentrations, resulting in a final Dimethylsulfoxid (DMSO) concentration of 0.2%. The compounds were incubated on the cells for either 16 h or 24 h. At the specified time point, the medium was carefully removed from the vessel, leaving only 2 μl in the wells. Celltiter-glo (CTG) reagent (G7572, Promega) was prepared according to the manufacturer’s instructions. Plates with cells were equilibrated at room temperature for 30 min. Subsequently, 25 μl of CTG reagent was added to the cells. The plates were then shaken for 2 min and incubated for an additional 15 min at room temperature. Luminescence was read afterward with BG Pherastar.

Compound | IC50 (CYP2C9) [µM] | IC50 (CYP2C8) [µM] | IC50 (CYP2D6) [µM] | IC50 (CYP3A4) [µM] | inhibition at 10 µM (GSK-3B) [%] | inhibition at 10 µM (ZAP70) [%] | inhibition at 10 µM (CDK2) [%] | inhibition at 10 µM (PHOSPHODIESTERASE 3B) [%] | inhibition at 10 µM (ABL1) [%] | Mean inhibition (%) (HIV-1 PROTEASE) | inhibition at 10 µM (ACETYLCHOLINESTERASE) [%] | inhibition at 10 µM (GSK-3A) [%] | inhibition at 10 µM (MONOAMINE OXIDASE-A) [%] | inhibition at 10 µM [1] [%] | inhibition at 10 µM (CYCLO OXYGENASE 2) [%] | inhibition at 10 µM (PHOSPHODIESTERASE 4D2) [%] | fraction unbound [2] | cytotoxicity on HEK293T cells (HEK293T cells)
Cc1nnc(-c2ccc(OCCCOc3ccc(CCC(=O)O)c(F)c3)c(F)c2)s1 [Compound 1] | > 20 | > 20 | > 20 | > 20 | 20.2 | -0.3 | 3.6 | 1.4 | 4.4 | 8.2 | 0 | 39.6 | 13.3 | -11.6 | -21.7 | 3.1 | 0.0021 | did not indicate any cytotoxicity; also recorded: No cytotoxic effects
COc1ccc(Oc2ccc3ncn(CCOc4ccc(CCC(=O)O)cc4)c3c2)cc1 [Compound 2] | > 20 | 1.75 | > 20 | > 20 | -20.3 | 3.5 | 45.9 | -26.7 | -11 | 0.2 | 2 | -8.8 | 4.4 | -44.3 | -10.4 | -3.8 | 0.0042 | did not indicate any cytotoxicity; also recorded: No cytotoxic effects
